Results reported in doi:10.1101/2024.08.19.608619, “Discovery of potent SARS-CoV-2 nsp3 macrodomain inhibitors uncovers lack of translation to cellular antiviral response” (bioRxiv, 2024).
Values after ≈ are worked out from the molar mass of the structure shown. Values joined by “and” are separate entries in the source; they are usually repeats but may differ in a detail not shown here. Identical values can stand only once. Like-named read-outs stand apart in the source and are kept apart here.

Experiments:
LogD = settings: pH 7.4; In vitro LogD
[1] = In vitro dog hepatocyte stability; assay type: in vitro ADME
From the text: Supplement media-1.zip/Hepatocyte_Stability.csv, table | column: clint; t_half

[2] = In vitro kinetic solubility; settings: In vitro kinetic solubility, ph 7.4
D2S (h) = biological target: T1, D2S (h) (Homo sapiens, UniProt P14416); test: In vitro CEREP profiling, D2S (h) (agonist radioligand); assay type: binding; settings: test compound 10 uM
T1 construct: purchased Eurofins Cerep (SafetyScreen44), recognised from the panel format
T1 sequence (P14416 1-414 isoform P14416-2): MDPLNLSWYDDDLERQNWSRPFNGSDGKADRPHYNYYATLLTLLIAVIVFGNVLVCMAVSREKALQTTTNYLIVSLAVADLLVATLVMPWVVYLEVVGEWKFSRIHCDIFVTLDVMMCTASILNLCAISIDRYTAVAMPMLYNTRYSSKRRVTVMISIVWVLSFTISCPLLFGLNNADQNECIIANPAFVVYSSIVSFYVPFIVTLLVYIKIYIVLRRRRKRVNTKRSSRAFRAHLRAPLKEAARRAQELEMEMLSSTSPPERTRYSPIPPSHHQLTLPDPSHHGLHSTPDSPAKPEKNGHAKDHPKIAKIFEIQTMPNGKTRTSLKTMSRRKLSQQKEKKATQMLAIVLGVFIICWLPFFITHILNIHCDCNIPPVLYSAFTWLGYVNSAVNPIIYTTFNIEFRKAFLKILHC
From the text: (§1) Supplement media-1.zip/Safety_Panel_Profile.csv, table | column: perc_inhibition

dopamine transporter (h) = biological target: T2, dopamine transporter (h) (Homo sapiens, UniProt Q01959); test: In vitro CEREP profiling, dopamine transporter (h) (antagonist radioligand); assay type: binding; settings: test compound concentration 10 uM
T2 construct: purchased Eurofins Cerep (SafetyScreen44), recognised from the panel format
T2 sequence (Q01959 whole entry): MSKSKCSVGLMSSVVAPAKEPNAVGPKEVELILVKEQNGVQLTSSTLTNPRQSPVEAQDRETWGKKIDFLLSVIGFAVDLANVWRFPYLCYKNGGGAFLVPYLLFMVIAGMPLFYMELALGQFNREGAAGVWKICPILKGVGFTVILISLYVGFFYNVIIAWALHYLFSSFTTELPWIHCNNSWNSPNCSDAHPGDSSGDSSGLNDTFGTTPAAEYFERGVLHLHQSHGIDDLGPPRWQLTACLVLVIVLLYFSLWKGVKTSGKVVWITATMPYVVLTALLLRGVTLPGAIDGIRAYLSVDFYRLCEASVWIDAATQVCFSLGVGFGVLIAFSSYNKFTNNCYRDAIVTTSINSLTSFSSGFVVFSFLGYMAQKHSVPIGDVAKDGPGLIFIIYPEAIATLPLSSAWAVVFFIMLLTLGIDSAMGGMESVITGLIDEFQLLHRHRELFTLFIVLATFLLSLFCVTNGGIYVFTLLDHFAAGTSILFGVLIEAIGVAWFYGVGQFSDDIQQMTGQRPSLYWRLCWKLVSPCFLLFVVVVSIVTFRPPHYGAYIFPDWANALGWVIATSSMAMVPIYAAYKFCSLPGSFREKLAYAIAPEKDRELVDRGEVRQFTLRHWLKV
From the text: as §1

A2A (h) = biological target: T3, A2A (h) (Homo sapiens, UniProt P29274); test: In vitro CEREP profiling, A2A (h) (agonist radioligand); assay type: binding; settings: test compound 10 uM
T3 construct: purchased Eurofins Cerep (SafetyScreen44), recognised from the panel format
T3 sequence (P29274 whole entry): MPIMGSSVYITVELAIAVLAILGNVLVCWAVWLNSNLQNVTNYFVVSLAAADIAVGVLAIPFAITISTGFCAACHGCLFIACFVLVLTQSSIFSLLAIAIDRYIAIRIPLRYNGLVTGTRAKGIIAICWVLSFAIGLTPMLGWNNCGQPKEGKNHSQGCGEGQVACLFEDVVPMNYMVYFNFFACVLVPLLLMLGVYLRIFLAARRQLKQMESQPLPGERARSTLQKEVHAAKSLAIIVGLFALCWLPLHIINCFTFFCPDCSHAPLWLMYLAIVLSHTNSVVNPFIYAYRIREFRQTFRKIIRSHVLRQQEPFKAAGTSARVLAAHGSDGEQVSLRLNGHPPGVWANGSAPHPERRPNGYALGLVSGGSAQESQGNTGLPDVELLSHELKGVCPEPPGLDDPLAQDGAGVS
From the text: as §1

PKA(h) = biological target: T4, PKA(h) (Homo sapiens, UniProt P17612); test: biochemical; design: In vitro kinase panel profiling, per cent remaining kinase activity at 10 uM; settings: atp_concentration=10, read-out: % of control remaining
T4 construct: gene PRKACA
From the text: (§2) We derisk potential for off-target activity by profiling the compound in a CEREP panel, a standard secondary pharmacology assessment, as well as a kinase panel to derisk a potential hinge-binding motif in our leads, and a PARP panel to derisk activity against human […]. Reassuringly, the compounds are selective, with the only off-targets being moderate human CHRM2 and KOR receptors activity associated with ASAP-0011198.

MSK2(h) = biological target: T5, MSK2(h) (Homo sapiens, UniProt O75676); test: biochemical; design: In vitro kinase panel profiling, per cent remaining kinase activity at 10 uM; settings: atp_concentration=45, read-out: % of control remaining
T5 construct: gene RPS6KA4
From the text: as §2

5-HT2B (h) = biological target: T6, 5-HT2B (h) (Homo sapiens, UniProt P41595); test: In vitro CEREP profiling, 5-HT2B (h) (agonist radioligand); assay type: binding; settings: test compound concentration 10 uM
T6 construct: purchased Eurofins Cerep (SafetyScreen44), recognised from the panel format
T6 sequence (P41595 whole entry): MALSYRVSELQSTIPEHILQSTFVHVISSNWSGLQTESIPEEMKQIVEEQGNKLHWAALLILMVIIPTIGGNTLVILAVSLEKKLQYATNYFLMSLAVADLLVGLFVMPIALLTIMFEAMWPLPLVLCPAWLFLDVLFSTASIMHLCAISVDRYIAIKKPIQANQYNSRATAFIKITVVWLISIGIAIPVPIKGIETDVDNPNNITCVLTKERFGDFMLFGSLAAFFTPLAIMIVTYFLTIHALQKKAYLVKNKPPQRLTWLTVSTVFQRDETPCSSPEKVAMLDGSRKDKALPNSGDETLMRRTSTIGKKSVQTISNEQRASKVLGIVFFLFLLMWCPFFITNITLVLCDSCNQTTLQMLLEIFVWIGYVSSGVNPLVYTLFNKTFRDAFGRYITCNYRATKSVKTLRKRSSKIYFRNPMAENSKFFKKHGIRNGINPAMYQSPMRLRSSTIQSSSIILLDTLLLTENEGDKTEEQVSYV
From the text: as §1

M3 (h) = biological target: T7, M3 (h) (Homo sapiens, UniProt P20309); test: In vitro CEREP profiling, M3 (h) (antagonist radioligand); assay type: binding; settings: test compound concentration 10 uM
T7 construct: purchased Eurofins Cerep (SafetyScreen44), recognised from the panel format
T7 sequence (P20309 whole entry): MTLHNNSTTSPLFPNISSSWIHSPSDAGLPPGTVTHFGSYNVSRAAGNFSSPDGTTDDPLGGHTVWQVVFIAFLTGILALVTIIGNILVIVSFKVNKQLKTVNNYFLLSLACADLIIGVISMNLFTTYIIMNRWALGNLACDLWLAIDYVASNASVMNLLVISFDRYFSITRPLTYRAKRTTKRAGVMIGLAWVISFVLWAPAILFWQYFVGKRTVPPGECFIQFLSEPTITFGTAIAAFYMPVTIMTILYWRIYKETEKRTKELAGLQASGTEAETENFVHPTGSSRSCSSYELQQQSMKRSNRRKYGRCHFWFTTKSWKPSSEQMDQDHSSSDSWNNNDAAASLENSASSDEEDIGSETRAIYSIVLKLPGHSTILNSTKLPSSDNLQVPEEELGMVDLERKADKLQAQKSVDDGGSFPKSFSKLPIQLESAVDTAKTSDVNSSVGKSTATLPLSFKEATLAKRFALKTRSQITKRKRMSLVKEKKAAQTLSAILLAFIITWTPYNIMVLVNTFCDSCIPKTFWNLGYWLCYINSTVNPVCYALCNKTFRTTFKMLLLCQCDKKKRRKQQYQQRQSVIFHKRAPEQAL
From the text: as §1

[3] = biological target: T8, Potassium Channel hERG (human) (Homo sapiens, UniProt Q12809); test: In vitro CEREP profiling, Potassium Channel hERG (human)- [3H] Dofetilide; assay type: binding; settings: test compound concentration 10 uM
T8 construct: purchased Eurofins Cerep (SafetyScreen44), recognised from the panel format
From the text: as §1

CCK1 (CCKA) (h) = biological target: T9, CCK1 (CCKA) (h) (Homo sapiens, UniProt P32238); test: In vitro CEREP profiling, CCK1 (CCKA) (h) (agonist radioligand); assay type: binding; settings: test compound 10 uM
T9 construct: purchased Eurofins Cerep (SafetyScreen44), recognised from the panel format
T9 sequence (P32238 1-428): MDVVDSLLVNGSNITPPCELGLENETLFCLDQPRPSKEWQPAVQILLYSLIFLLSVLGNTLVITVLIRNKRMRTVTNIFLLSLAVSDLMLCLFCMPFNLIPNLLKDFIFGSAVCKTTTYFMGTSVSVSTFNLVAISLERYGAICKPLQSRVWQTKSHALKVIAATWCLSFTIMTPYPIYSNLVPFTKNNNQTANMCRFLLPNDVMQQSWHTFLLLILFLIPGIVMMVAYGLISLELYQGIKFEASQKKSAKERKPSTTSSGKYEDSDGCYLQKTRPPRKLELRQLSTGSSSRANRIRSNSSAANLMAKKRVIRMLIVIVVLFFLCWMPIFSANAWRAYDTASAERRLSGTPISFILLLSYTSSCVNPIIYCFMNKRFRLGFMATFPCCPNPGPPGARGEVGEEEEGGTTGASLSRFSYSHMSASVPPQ
From the text: as §1

CB1 (h) = biological target: T10, CB1 (h) (Homo sapiens, UniProt P21554); test: In vitro CEREP profiling, CB1 (h) (agonist radioligand); assay type: binding; settings: test compound 10 uM
T10 construct: purchased Eurofins Cerep (SafetyScreen44), recognised from the panel format
T10 sequence (P21554 whole entry): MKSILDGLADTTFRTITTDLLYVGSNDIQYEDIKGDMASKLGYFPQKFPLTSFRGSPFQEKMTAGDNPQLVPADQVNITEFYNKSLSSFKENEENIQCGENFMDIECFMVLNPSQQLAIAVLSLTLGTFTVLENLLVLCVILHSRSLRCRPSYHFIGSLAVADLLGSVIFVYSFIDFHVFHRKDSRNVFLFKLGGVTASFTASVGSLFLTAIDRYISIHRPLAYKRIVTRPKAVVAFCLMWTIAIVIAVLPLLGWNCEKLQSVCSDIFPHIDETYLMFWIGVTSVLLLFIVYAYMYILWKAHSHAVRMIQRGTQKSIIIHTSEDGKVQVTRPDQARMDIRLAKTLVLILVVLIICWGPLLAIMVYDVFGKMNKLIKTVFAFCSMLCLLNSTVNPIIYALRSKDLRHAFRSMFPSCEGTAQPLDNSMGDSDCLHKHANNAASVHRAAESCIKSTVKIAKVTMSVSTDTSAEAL
From the text: as §1

COX1(h) = biological target: T11, COX1(h) (Homo sapiens, UniProt P23219); test: In vitro CEREP profiling, COX1(h); assay type: biochemical; settings: test compound concentration 10 uM; Enzyme and Cell-based assays
T11 construct: purchased Eurofins Cerep (SafetyScreen44), recognised from the panel format
T11 sequence (P23219 24-599): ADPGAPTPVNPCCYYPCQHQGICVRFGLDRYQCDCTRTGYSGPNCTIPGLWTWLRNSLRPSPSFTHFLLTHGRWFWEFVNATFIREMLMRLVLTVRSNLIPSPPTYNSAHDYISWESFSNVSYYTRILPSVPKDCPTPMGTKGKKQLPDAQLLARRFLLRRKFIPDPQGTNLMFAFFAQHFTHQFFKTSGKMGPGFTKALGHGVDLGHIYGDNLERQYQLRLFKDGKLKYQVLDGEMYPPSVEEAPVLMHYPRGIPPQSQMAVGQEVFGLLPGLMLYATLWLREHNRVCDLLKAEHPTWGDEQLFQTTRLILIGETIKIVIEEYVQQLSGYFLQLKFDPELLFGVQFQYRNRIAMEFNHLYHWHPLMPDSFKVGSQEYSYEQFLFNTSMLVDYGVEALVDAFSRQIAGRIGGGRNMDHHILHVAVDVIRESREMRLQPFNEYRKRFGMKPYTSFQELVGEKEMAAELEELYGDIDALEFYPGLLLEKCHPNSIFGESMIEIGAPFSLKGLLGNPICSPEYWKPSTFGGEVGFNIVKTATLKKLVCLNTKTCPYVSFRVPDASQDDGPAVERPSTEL
From the text: as §1

5-HT3 (h) = biological target: T12, 5-HT3 (h) (Homo sapiens, UniProt P46098); test: In vitro CEREP profiling, 5-HT3 (h) (antagonist radioligand); assay type: binding; settings: test compound concentration 10 uM
T12 construct: purchased Eurofins Cerep (SafetyScreen44), recognised from the panel format
T12 sequence (P46098 24-478): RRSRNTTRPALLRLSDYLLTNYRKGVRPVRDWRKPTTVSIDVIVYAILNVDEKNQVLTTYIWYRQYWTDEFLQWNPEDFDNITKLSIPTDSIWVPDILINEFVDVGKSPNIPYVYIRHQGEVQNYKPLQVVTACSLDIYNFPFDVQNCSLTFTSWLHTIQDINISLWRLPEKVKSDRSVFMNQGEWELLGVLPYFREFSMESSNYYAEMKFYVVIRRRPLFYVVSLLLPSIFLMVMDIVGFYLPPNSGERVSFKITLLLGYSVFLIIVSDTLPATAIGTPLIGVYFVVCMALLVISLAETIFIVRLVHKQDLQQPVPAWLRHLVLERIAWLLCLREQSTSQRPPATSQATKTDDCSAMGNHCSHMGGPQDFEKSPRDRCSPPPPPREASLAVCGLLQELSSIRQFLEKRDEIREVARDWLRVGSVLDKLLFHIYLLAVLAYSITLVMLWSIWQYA
From the text: as §1

H2 (h) = biological target: T13, H2 (h) (Homo sapiens, UniProt P25021); test: In vitro CEREP profiling, H2 (h) (antagonist radioligand); assay type: binding; settings: test compound concentration 10 uM
T13 construct: purchased Eurofins Cerep (SafetyScreen44), recognised from the panel format
T13 sequence (P25021 whole entry): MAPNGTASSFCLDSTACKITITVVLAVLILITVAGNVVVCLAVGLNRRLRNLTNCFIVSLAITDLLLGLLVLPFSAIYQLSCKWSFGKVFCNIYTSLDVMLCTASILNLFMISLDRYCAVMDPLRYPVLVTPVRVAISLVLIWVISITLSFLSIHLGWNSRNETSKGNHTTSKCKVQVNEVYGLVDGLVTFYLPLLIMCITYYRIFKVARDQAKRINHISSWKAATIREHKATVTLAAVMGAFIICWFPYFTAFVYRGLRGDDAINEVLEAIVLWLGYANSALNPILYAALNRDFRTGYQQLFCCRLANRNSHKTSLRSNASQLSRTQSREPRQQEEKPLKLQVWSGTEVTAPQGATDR
From the text: as §1

[4] = In vitro rat SD liver microsomal stability; assay type: in vitro ADME
From the text: Supplement media-1.zip/Hepatic_Microsomal_Stability.csv, table | column: clint; t_half

5-HT1B (h) = biological target: T14, 5-HT1B (h) (Homo sapiens, UniProt P28222); test: In vitro CEREP profiling, 5-HT1B (h) (antagonist radioligand); assay type: binding; settings: test compound concentration 10 uM
T14 construct: purchased Eurofins Cerep (SafetyScreen44), recognised from the panel format
T14 sequence (P28222 whole entry): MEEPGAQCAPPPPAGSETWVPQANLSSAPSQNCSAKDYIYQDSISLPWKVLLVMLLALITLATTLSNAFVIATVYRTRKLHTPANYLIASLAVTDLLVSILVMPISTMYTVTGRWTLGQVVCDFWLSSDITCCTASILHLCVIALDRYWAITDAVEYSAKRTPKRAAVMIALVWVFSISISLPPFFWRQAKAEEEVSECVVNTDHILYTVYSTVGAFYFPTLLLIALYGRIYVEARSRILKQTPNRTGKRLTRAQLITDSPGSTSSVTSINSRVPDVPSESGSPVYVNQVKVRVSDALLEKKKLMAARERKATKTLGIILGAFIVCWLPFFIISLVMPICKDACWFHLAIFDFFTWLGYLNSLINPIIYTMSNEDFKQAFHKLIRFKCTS
From the text: as §1

beta2 (h) = biological target: T15, beta2 (h) (Homo sapiens, UniProt P07550); test: In vitro CEREP profiling, beta2 (h) (antagonist radioligand); assay type: binding; settings: test compound 10 uM
T15 construct: purchased Eurofins Cerep (SafetyScreen44), recognised from the panel format
T15 sequence (P07550 whole entry): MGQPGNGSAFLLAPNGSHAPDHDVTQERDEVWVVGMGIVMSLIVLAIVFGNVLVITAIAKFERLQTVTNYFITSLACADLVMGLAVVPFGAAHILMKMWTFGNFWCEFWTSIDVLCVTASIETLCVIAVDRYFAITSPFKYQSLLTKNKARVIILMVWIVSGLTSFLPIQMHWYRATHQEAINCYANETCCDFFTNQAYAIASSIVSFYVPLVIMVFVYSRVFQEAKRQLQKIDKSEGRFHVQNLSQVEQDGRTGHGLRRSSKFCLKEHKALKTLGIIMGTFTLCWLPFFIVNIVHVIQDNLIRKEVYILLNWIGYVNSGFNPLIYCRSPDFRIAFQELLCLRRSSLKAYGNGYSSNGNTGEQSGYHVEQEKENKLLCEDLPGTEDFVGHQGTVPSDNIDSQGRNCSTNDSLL
From the text: as §1

HeLa-ACE2 cells = settings: HeLa-ACE2 cytotoxicity; for perc_max_measured: highest measured response of the dose series; for perc_min_measured: lowest measured response of the dose series

Structure (SMILES): CC(C)[C@H](Nc1ncnc2[nH]ccc12)c1ccc2c(c1)S(=O)(=O)CCC2 [ASAP-0008674]
- logd (LogD): 2.7
- clint [1]: < 3.0 uL/min/1E6 cells
- t_half [1]: > 231.0 min
- solubility_mean [2]: 374 µM (≈ 139 µg/mL)
- perc_inhibition (% inhibition of the binding of a ligand specific for each target) (D2S (h)): -14%
- perc_inhibition (% inhibition of the binding of a ligand specific for each target) (dopamine transporter (h)): 27%
- perc_inhibition (% inhibition of the binding of a ligand specific for each target) (A2A (h)): 11%
- remaining activity at 10 µM (PKA(h); batch_name=ASAP-0008674-002): 89%
- remaining activity at 10 µM (MSK2(h); batch_name=ASAP-0008674-002): 92%
- perc_inhibition (% inhibition of the binding of a ligand specific for each target) (5-HT2B (h)): 54%
- perc_inhibition (% inhibition of the binding of a ligand specific for each target) (M3 (h)): 5%
- perc_inhibition (% inhibition of the binding of a ligand specific for each target) [3]: 20%
- perc_inhibition (% inhibition of the binding of a ligand specific for each target) (CCK1 (CCKA) (h)): -2%
- perc_inhibition (% inhibition of the binding of a ligand specific for each target) (CB1 (h)): -13%
- perc_inhibition: % inhibition of control enzyme activity, COX1(h) (COX1(h)): 85%
- perc_inhibition (% inhibition of the binding of a ligand specific for each target) (5-HT3 (h)): 8%
- perc_inhibition (% inhibition of the binding of a ligand specific for each target) (H2 (h)): -6%
- clint [4]: 155.0 µL/min/mg
- t_half [4]: 4.49 min
- perc_inhibition (% inhibition of the binding of a ligand specific for each target) (5-HT1B (h)): 0%
- perc_inhibition (% inhibition of the binding of a ligand specific for each target) (beta2 (h)): -1%
- CC50 (HeLa-ACE2 cells): > 20 µM
- cc10 (HeLa-ACE2 cells): > 20.0 µM
- perc_max_measured (HeLa-ACE2 cells): 118.208% and 98.628%
- perc_min_measured (HeLa-ACE2 cells): 91.836% and 85.869%

Structure (SMILES): CC(C)[C@H](Nc1ncnc2[nH]c(-c3cnn(C)c3C#N)cc12)c1ccc2c(n1)OCCO2 [ASAP-0010715]
- logd (LogD): 3.7
- clint [1]: 3.01 uL/min/1E6 cells
- t_half [1]: 231.0 min
- solubility_mean [2]: 53 µM (≈ 22.8 µg/mL)
- perc_inhibition (% inhibition of the binding of a ligand specific for each target) (D2S (h)): -7%
- perc_inhibition (% inhibition of the binding of a ligand specific for each target) (dopamine transporter (h)): 29%
- perc_inhibition (% inhibition of the binding of a ligand specific for each target) (A2A (h)): 84%
- remaining activity at 10 µM (PKA(h); batch_name=ASAP-0010715-002): 82%
- remaining activity at 10 µM (MSK2(h); batch_name=ASAP-0010715-002): 114%
- perc_inhibition (% inhibition of the binding of a ligand specific for each target) (5-HT2B (h)): 18%
- perc_inhibition (% inhibition of the binding of a ligand specific for each target) (M3 (h)): -15%
- perc_inhibition (% inhibition of the binding of a ligand specific for each target) [3]: 29%
- perc_inhibition (% inhibition of the binding of a ligand specific for each target) (CCK1 (CCKA) (h)): 1%
- perc_inhibition (% inhibition of the binding of a ligand specific for each target) (CB1 (h)): 46%
- perc_inhibition: % inhibition of control enzyme activity, COX1(h) (COX1(h)): -39%
- perc_inhibition (% inhibition of the binding of a ligand specific for each target) (5-HT3 (h)): 6%
- perc_inhibition (% inhibition of the binding of a ligand specific for each target) (H2 (h)): -16%
- clint [4]: 106.0 µL/min/mg
- t_half [4]: 6.54 min
- perc_inhibition (% inhibition of the binding of a ligand specific for each target) (5-HT1B (h)): -11%
- perc_inhibition (% inhibition of the binding of a ligand specific for each target) (beta2 (h)): 3%
- CC50 (HeLa-ACE2 cells): 12.5 µM and > 20 µM
- perc_max_measured (HeLa-ACE2 cells): 90.88% and 122.905% and 97.413%

Structure (SMILES): CC(C)[C@@H](Nc1ncnc2[nH]c(-c3cnn(C)c3C#N)cc12)c1ccc2c(n1)OCCO2 [ASAP-0010716]
- logd (LogD): 3.9
- clint [1]: 3.91 uL/min/1E6 cells
- t_half [1]: 177.0 min
- solubility_mean [2]: 50 µM (≈ 21.5 µg/mL)
- perc_inhibition (% inhibition of the binding of a ligand specific for each target) (D2S (h)): 3%
- perc_inhibition (% inhibition of the binding of a ligand specific for each target) (dopamine transporter (h)): 30%
- perc_inhibition (% inhibition of the binding of a ligand specific for each target) (A2A (h)): 69%
- remaining activity at 10 µM (PKA(h); batch_name=ASAP-0010716-002): 93%
- remaining activity at 10 µM (MSK2(h); batch_name=ASAP-0010716-002): 122%
- perc_inhibition (% inhibition of the binding of a ligand specific for each target) (5-HT2B (h)): 40%
- perc_inhibition (% inhibition of the binding of a ligand specific for each target) (M3 (h)): 1%
- perc_inhibition (% inhibition of the binding of a ligand specific for each target) [3]: 32%
- perc_inhibition (% inhibition of the binding of a ligand specific for each target) (CCK1 (CCKA) (h)): 20%
- perc_inhibition (% inhibition of the binding of a ligand specific for each target) (CB1 (h)): 14%
- perc_inhibition: % inhibition of control enzyme activity, COX1(h) (COX1(h)): -34%
- perc_inhibition (% inhibition of the binding of a ligand specific for each target) (5-HT3 (h)): 4%
- perc_inhibition (% inhibition of the binding of a ligand specific for each target) (H2 (h)): -11%
- clint [4]: 156.0 µL/min/mg
- t_half [4]: 4.46 min
- perc_inhibition (% inhibition of the binding of a ligand specific for each target) (5-HT1B (h)): 4%
- perc_inhibition (% inhibition of the binding of a ligand specific for each target) (beta2 (h)): 3%
- CC50 (HeLa-ACE2 cells): > 20 µM
- cc10 (HeLa-ACE2 cells): > 20.0 µM
- perc_max_measured (HeLa-ACE2 cells): 137.444% and 97.941%
- perc_min_measured (HeLa-ACE2 cells): 84.699% and 78.982%
